Data from PMC11042424, “Development of a First-in-Class RIPK1 Degrader to Enhance Antitumor Immunity” (Research Square, 2024).
pIC50, pKi: −log10 of the molar value. Read-outs that look alike come from different tables or passages of the source.

How the values were obtained:
[1] = target: T1, nLuc-RIPK1 fusion protein (Homo sapiens, UniProt Q13546); experiment: NanoBRET based in-cell RIPK1 target engagement
T1 construct: expressed in transfected cells
T1 sequence (Q13546 1-671): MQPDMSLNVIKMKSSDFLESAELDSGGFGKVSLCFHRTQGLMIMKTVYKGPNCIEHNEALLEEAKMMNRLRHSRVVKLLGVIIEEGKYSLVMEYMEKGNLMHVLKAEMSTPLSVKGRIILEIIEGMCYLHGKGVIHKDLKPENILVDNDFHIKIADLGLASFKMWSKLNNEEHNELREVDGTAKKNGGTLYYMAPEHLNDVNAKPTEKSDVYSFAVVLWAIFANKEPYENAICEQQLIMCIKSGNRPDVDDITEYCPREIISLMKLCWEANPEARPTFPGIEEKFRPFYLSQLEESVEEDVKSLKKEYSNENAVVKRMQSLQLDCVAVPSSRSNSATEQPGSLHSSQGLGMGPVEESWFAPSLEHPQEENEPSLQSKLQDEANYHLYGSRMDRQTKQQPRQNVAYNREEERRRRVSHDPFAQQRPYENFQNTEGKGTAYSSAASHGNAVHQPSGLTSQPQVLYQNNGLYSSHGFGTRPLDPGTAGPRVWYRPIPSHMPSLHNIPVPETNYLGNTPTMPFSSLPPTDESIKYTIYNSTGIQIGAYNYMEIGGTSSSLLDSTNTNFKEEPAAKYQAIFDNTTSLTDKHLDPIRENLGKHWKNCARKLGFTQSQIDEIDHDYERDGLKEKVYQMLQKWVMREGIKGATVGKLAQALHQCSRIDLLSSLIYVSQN
Experimental: Figure 2 LD4172, a RIPK1 PROTAC, induces potent and highly specific degradation of RIPK1 in a panel of cell lines. A, Chemical structures of RIPK1 PROTAC, LD4172, and its negative control, LD4172-NC. […] B, Quantification of RIPK1 levels in both Jurkat and B16F10 cells treated with LD4172 at indicated concentrations for 24 h, followed by Western blotting. C, DC50 and Dmax of LD4172 in various human and mouse cell lines. DC50, the drug concentration causing 50% protein degradation; Dmax, the maximum level of protein degradation. D, RIPK1 degradation kinetics induced by LD4172 treatment (1 μM) and resynthesis kinetics upon washout of LD4172 in both Jurkat and B16F10 cells. E, Quantification of D. The degradation half-life of RIPK1 induced by LD4172 (1 μM) is <2 h in Jurkat and B16F10 cells. […] F, NanoBRET based in-cell RIPK1 target engagement. HEK293 cells were transfected with a plasmid expressing nLuc-RIPK1 fusion protein for 24 h, followed by incubating with a RIPK1 NanoBRET tracer (500 nM) and different concentrations of LD4172 and LD4172-NC (n=3). G, Time-resolved fluorescence resonance energy transfer (TR-FRET) based biochemical binding assay for RIPK1. GST-tagged human RIPK1 (1 nM), Tb-labeled anti-GST antibody (0.3 nM), a RIPK1 TR-FRET tracer (350 nM) and different concentrations of LD4172 (n=3) were incubated for 2 hours, followed by TR-FRET measurements with an excitation wavelength at 340 nm and emission wavelengths at 495 and 520 nm. H, NanoBRET based in-cell assay for ternary complex formation. HEK293T cells were co-transfected with nLuc-RIPK1 and VHL-HaloTag plasmids for 24 h, followed by treatment with indicated concentrations of LD4172 or LD4172-NC (n=3). I, LD4172 induced RIPK1 degradation depends on ternary complex formation, neddylation and proteasome activity. Representative immunoblots of RIPK1 in both Jurkat and B16F10 cells. Cells were treated with RIPK1 inhibitor (T2I), VHL ligand, a neddylation inhibitor (MLN4924) or a proteasome inhibitor (Carfilzomib) at indicated concentrations for 4 hours, followed by LD4172 treatment for 4 hours. J, Proteome profiling of LD4172 induced protein degradation. MDA-MB- 231 cells were treated with LD4172 (200 nM) or LD4172-NC (200 nM) for 6 h (n=3). In total, ~10,000 proteins were quantified in the proteomics experiment. […] Blue dots represent kinases that are inhibited by the warhead of LD4172 but not degraded by LD4172.
To elucidate the formation of a binary complex during RIPK1 degradation, we developed a competitive NanoBRET (Nano-Bioluminescence Resonance Energy transfer)-based target engagement (TE) assay to quantify the binding between RIPK1 and LD4172 in cells[12],[13]. First, we developed a RIPK1 tracer by conjugating the LD4172 warhead T2I with a BODIPY-590 fluorescent dye, dubbed T2–590 (refer to Supporting Information for details). The dissociation equilibrium constant (Kd) between the tracer and RIPK1 was determined to be 0.5 μM by titrating the tracer in HEK293T cells expressing a nLuc-RIPK1 fusion protein. […] This is usually expected, considering that the large molecular weight of LD4172 may lead to poor cellular permeability.

MC38 tumors = experiment: Syngeneic MC38 colon cancer model with anti-PD1; assay type: in vivo
[2] = Stability in mouse liver S9 fractions; assay type: in vitro ADME
Plasma protein binding = assay type: in vitro ADME; details: read-out: bound to plasma proteins (converted)

Cc1ncsc1-c1ccc([C@H](C)NC(=O)[C@@H]2C[C@@H](O)CN2C(=O)[C@@H](NC(=O)CCCCCCCCCCC(=O)NCCCn2cc(-c3ccc4c(c3)CCN4C(=O)Cc3cccc(OC(F)(F)F)c3)c3c(N)ncnc32)C(C)(C)C)cc1 [LD4172]
pKi ([1]; Cheng-Prusoff equation, read-out: apparent Ki between compound and RIPK1 in the cells): 5.72 | IC50 ([1]; HEK293 cells, tracer 500 nM, n=3, read-out: IC50 (nM), Fig. 2F): 3750 nM | pIC50 ([1]; tracer concentration at its Kd value, read-out: IC50, competition with tracer): 5.43 | tumor response in combination with anti-PD1 (MC38 tumors): substantially sensitized MC38 tumors to anti-PD1 therapy | half-life [2]: 9.7 min | intrinsic clearance (CLint) [2]: 71.6 μL·min^− 1·mg^− 1 protein | fraction unbound (Plasma protein binding): 0.014
